Data reported in patent US9403756B2, “N-phenyl anthranilic acid derivatives and uses thereof” (Ramot at Tel-Aviv University Ltd., priority 2007, dated 2016).

Tests used:
[1] = tested on: maximal electroshock seizure model (MES) in ICR mice; experiment: Maximal electroshock seizure test (MES); assay type: in vivo; conditions: Mus musculus, ip; mice; intraperitoneal, 30 minutes before electroshock; 50 mA, 0.2 sec; read-out: ED50, protection against tonic extension caused by MES
Method: The anti-convulsant effect was measured by the maximal electroshock seizure model (MES) in ICR mice as previously described. The procedures followed for experimentation and maintenance of the animals were approved by the animal research ethics committee of Tel Aviv University and in accordance with the Guide for the Care and Use of Laboratory Animals (1996, National Academy of Sciences, Washington D.C.). Briefly, maximal electroshock was induced in adult mice by means of two transcorneal electrodes delivering an alternative current of 50 mA at 60 Hz for 0.2 sec using rodent shocker (Hugo Sachs Electronik, type 221). […] The compounds, dissolved in 0.9% saline, were administered intraperitoneally 30 minutes before the electroshock was performed. Animals failing to show tonic hind limb extension were scored as protected and were expressed in percentage.

KCNQ2 mutant L206C = biological target: T1, KCNQ2 mutant L206C (Homo sapiens, UniProt O43526, L206C); experiment: KCNQ2 S4 mutant L206C in CHO cells; assay type: cell-based; conditions: 25 μM NH29
T1 construct: expressed in transfected cells; host or cells: CHO cells
T1 sequence (O43526 whole entry L206C): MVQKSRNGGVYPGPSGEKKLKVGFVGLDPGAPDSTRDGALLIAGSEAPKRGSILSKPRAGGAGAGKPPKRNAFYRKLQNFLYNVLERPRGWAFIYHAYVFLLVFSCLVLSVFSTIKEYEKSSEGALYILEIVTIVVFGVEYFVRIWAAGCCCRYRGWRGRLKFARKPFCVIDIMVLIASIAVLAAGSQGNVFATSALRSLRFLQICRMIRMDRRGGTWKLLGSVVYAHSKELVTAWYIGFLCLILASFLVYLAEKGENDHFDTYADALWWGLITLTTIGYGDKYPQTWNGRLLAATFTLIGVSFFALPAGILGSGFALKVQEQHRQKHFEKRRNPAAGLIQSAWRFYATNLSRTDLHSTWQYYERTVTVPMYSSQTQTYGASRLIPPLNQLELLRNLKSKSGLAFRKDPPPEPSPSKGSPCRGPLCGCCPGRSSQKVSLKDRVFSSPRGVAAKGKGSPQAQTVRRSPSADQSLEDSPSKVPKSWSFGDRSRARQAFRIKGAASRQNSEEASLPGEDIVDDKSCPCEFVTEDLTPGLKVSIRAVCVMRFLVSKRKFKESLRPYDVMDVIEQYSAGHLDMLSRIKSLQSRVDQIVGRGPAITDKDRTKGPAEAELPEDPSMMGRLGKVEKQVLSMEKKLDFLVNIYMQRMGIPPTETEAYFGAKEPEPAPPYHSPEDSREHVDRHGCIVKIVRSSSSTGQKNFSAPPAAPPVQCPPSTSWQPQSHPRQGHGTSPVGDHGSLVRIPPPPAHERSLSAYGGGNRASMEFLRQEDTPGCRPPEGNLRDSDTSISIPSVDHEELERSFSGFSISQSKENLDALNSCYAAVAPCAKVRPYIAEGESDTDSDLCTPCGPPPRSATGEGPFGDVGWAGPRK
Description: (§1) FIGS. 12A-F present the potentiating effect of NH29, an exemplary channel opener compound according to embodiments of the present invention, on selected KCNQ2 mutants. Shown are bar diagrams comparing the potentiating effect of NH29 on native KCNQ2 and KCNQ2 mutants, wherein the mutated amino acids are located at the S1-S2 helix region (FIG. 12A) or S4 helix region (FIG. 12D) and wherein the opener effect is expressed as percent of the control current in the absence of the opener. For comparison, marked as a green line, is the observed current increase of native KCNQ2 by NH29. FIGS. 12B 12C, 12E and 12F present representative traces recorded from CHO cell transfected with the KCNQ2 mutant S122A, S121A, L206C and R201A respectively, before and after external application of 25 μM of NH29 and wherein the membrane potential was stepped from −90 mV holding potential to −40 mV for 1.5 seconds pulse duration.
(§2) Voltage-clamp recordings in CHO cells were performed, using the whole-cell configuration of the patch-clamp technique. Signals were amplified using an Axopatch 200B patch-clamp amplifier (Molecular Devices, Sunnyvale, Calif.), sampled at 2 kHz and filtered at 800 Hz via a 4-pole Bessel low pass filter. […] Series resistances (3-13 MΩ) were compensated (75-90%) and periodically monitored.

KCNQ2 mutant R214W = biological target: T2, KCNQ2 mutant R214W (Homo sapiens, UniProt O43526, R214W); experiment: KCNQ2 S4 mutant R214W; assay type: cell-based; conditions: NH29; to a lesser extent
T2 construct: expressed in transfected cells; host or cells: CHO cells
T2 sequence (O43526 whole entry R214W): as the sequence (O43526 whole entry L206C) above, with C206L, R214W counted along it
Description: as §1, §2

KCNQ2 mutant R207W = biological target: T3, KCNQ2 mutant R207W (Homo sapiens, UniProt O43526, R207W); assay type: cell-based
T3 construct: expressed in transfected cells; host or cells: CHO cells
T3 sequence (O43526 whole entry R207W): as the sequence (O43526 whole entry L206C) above, with C206L, R207W counted along it
Description: FIGS. 10A-D present the potentiating effect of NH29, an exemplary channel opener compound according to embodiments of the present invention, on wild type KCNQ2 (FIGS. 10A and 10B) and R207W mutant (FIGS. 10C and 10D) channels, as expressed in activation curve measurements, showing that NH29 left-shifts the activation curve (ΔV50) by −15.5 mV and −5.5 mV in the case of the wild-type and the mutant, respectively, and showing that NH29 enhances the current of wild-type and the mutant by about 3.4-fold (at −40 mV) and 1.5-fold (at −20 mV), respectively.
FIGS. 11A-F present the potentiating effect of NH29, an exemplary channel opener compound according to embodiments of the present invention, and Retigabine, on KCNQ2 mutants R207W and W236L mutant. Shown are representative traces recorded from CHO cell transfected with the KCNQ2 mutant R207W 0, 1 and 4-4.5 minutes after external application of 25 μM of NH29 and wherein the membrane potential was stepped from −90 mV holding potential to −20 mV for 1.5 seconds pulse duration (FIG. 11A), or 0, 1 and 4 minutes after external application of 25 μM of Retigabine wherein the membrane potential was stepped from −90 mV holding potential to −40 mV for 1.5 seconds pulse duration (FIG. 11B). FIGS. 11C and 11D show representative traces recorded from CHO cells transfected with the KCNQ2 mutant W236L 0, 1 and 6 minutes after external application of 25 μM of NH29 (FIG. 11C) or 0 and 5 minutes after external application of 10 μM of Retigabine (FIG. 11D) and wherein the membrane potential was stepped from −90 mV holding potential to −40 mV for 1.5 seconds pulse duration. FIG. 11E presents superimposed traces, showing the effects of Retigabine (RTG) and NH29 on the channel activity of KCNQ2 mutant W236L as measured at −40 mV; and FIG. 11F presents a bar diagram comparing the potentiating effect of NH29 and Retigabine on native KCNQ2 and KCNQ2 mutants, wherein the opener effect is expressed as percent of the control current in the absence of the opener.
Voltage-clamp recordings in CHO cells were performed, using the whole-cell configuration of the patch-clamp technique. Signals were amplified using an Axopatch 200B patch-clamp amplifier (Molecular Devices, Sunnyvale, Calif.), sampled at 2 kHz and filtered at 800 Hz via a 4-pole Bessel low pass filter. Data were acquired using pClamp 9.2 software (Molecular Devices) and an IBM compatible Pentium IV computer in conjunction with a DigiData 1322A interface (Molecular Devices). The patch pipettes were pulled from borosilicate glass (Warner Instrument Corp, USA) with a resistance of 2-5 MΩ. For K^+ current recordings in CHO cells, the intracellular pipette solution contained (in mM): 130 KCl, 1 MgCl2, 5 K2ATP, 5 EGTA, 10 HEPES, adjusted with KOH to pH 7.4 (290 mOsm). The extracellular solution contained (in mM): 140 NaCl, 4 KCl, 1.8 CaCl2, 1.2 MgCl2, 11 glucose, 5.5 HEPES, adjusted with NaOH to pH 7.4 (310 mOsm). Series resistances (3-13 MΩ) were compensated (75-90%) and periodically monitored.

O=C(Cc1cc([N+](=O)[O-])ccc1Nc1c(Cl)cccc1Cl)OCCO [NH25]
ED50 [1]: 12 mg/kg

O=C(Cc1cc([N+](=O)[O-])cc([N+](=O)[O-])c1Nc1c(Cl)cc([N+](=O)[O-])cc1Cl)NCCO [NH29]
opener activity on S4 mutant L206C (KCNQ2 mutant L206C): NH29 activity was preserved
sensitivity to the activating effect compared to wild-type Kv7.2 (KCNQ2 mutant R214W): significantly less sensitive
effect of point mutation R207W on the opener effect (KCNQ2 mutant R207W; 25 μM): completely abolished the opener effect
fold enhancement of current (KCNQ2 mutant R207W; 25 μM NH29, at −20 mV): ~1.5 fold
left-shift of the activation curve (ΔV50) (KCNQ2 mutant R207W; NH29): −5.5 mV
